According to patent US20110190365A1, “Insecticidal 4-phenyl-1H-pyrazoles” (Bayer Crop Science AG, priority 2008, published 2011):

assay: log P by HPLC on a reversed-phase column (C18), EEC Directive 79/831 Annex V.A8; format: physicochemical; details: HCOOH
Protocol: The stated log P values were determined in accordance with EEC Directive 79/831 Annex V.A8 by HPLC (High Performance Liquid Chromatography) using a reversed-phase column (C18).

Compound	log P (HCOOH)
Cc1cc(-n2nc(C)c(-c3c(Cl)cccc3Cl)c2N)ccc1C(=O)NCc1ccccn1 [I-A-Q2-376]	I-A-Q2-376: log P (HCOOH): 1.79
CC(NC(=O)c1ccc(-n2nc(C(F)(F)F)c(-c3cc(F)cc(Cl)c3)c2N)cc1)C(F)(F)F (centres unmarked) [I-A-Q2-084]	I-A-Q2-084: log P (HCOOH): 3.89
Nc1c(-c2cc(Cl)cc(Cl)c2)c(C(F)(F)F)nn1-c1ccc(C(=O)NC2CC2)cc1 [I-A-Q2-136]	I-A-Q2-136: log P (HCOOH): 3.80
Nc1c(-c2ccc(Cl)c(Cl)c2)c(C(F)(F)F)nn1-c1ccc(C(=O)NCC(F)(F)F)cc1 [I-A-Q2-156]	I-A-Q2-156: log P (HCOOH): 3.89
Cc1cc(-n2nc(C(F)(F)F)c(-c3cc(Cl)cc(Cl)c3)c2[S+](C)[O-])ccc1C(=O)NCC(F)(F)C(F)F (single isomer, unassigned) [I-A-Q2-284]	I-A-Q2-284: log P (HCOOH): 4.32
Cc1cc(-n2nc(C(F)(F)F)c(-c3ccc(Br)cc3)c2N)ccc1C(=O)NCc1ccccn1 [I-A-Q2-346]	I-A-Q2-346: log P (HCOOH): 2.80
Cc1cc(-n2nc(C(F)(F)F)c(-c3cc(Cl)cc(Cl)c3)c2N)ccc1C(=O)NCC(C)C [I-A-Q2-227]	I-A-Q2-227: log P (HCOOH): 4.40
C=CCNC(=O)c1ccc(-n2nc(C(F)(F)F)c(-c3cc(Cl)cc(Cl)c3)c2N)cc1C [I-A-Q2-062]	I-A-Q2-062: log P (HCOOH): 3.94
COc1ccc(-c2c(C)nn(-c3ccc(C(=O)NCC(F)(F)C(F)F)c(C)c3)c2N)cc1 [I-A-Q2-324]	I-A-Q2-324: log P (HCOOH): 2.30
Cc1cc(-n2nc(C(F)(F)F)c(-c3cc(Cl)cc(Cl)c3)c2N)ccc1C(=O)NC(c1cccc(C(F)(F)F)c1)C(F)(F)F (centres unmarked) [I-A-Q2-257]	I-A-Q2-257: log P (HCOOH): 5.22
Cc1cc(-n2nc(C(F)(F)F)c(-c3cc(Cl)cc(Cl)c3)c2N)ccc1C(=O)NC(c1ccc(Oc2ccccc2)cc1)C(F)(F)F (centres unmarked) [I-A-Q2-045]	I-A-Q2-045: log P (HCOOH): 5.85
Nc1c(-c2cc(Cl)cc(Cl)c2)c(C(F)(F)F)nn1-c1ccc(C(=O)NCc2ccccc2)cc1 [I-A-Q2-152]	I-A-Q2-152: log P (HCOOH): 4.45
Cc1cc(-n2nc(C(F)F)c(-c3ccc(F)cc3F)c2N)ccc1C(=O)NCC(F)(F)C(F)F [I-A-Q2-319]	I-A-Q2-319: log P (HCOOH): 2.80
Cc1cc(-n2nc(C(F)(F)F)c(-c3cc(Cl)cc(Cl)c3)c2N)ccc1C(=O)NC(CC(C)C)C(F)(F)F (centres unmarked) [I-A-Q2-198]	I-A-Q2-198: log P (HCOOH): 5.40
Cc1cc(-n2nc(C(F)(F)F)c(I)c2N)ccc1C(=O)O [XI-A-087]	XI-A-087: log P (HCOOH): 2.58
Cc1cc(C)cc(-c2c(C(F)(F)F)nn(-c3ccc(C(=O)NC(C)C(F)(F)F)cc3)c2N)c1 (centres unmarked) [I-A-Q2-178]	I-A-Q2-178: log P (HCOOH): 3.89
Nc1c(-c2ccc(Br)cc2)c(C(F)(F)F)nn1-c1ccc(C(=O)NCC(F)(F)F)cc1 [I-A-Q2-189]	I-A-Q2-189: log P (HCOOH): 3.53
CC(NC(=O)c1ccc(-n2nc(C(F)(F)F)c(-c3cc(Cl)cc(Cl)c3)c2N)cc1)C(F)(F)F (centres unmarked) [I-A-Q2-133]	I-A-Q2-133: log P (HCOOH): 4.44
Cc1cc(-n2nc(C(F)(F)F)c(-c3ccc(Cl)cc3Cl)c2N)ccc1C(=O)NCC(F)(F)C(F)F [I-A-Q2-305]	I-A-Q2-305: log P (HCOOH): 3.75
Nc1c(-c2ccc(Cl)c(F)c2)c(C(F)(F)F)nn1-c1ccc(C(=O)NC2CC2)cc1 [I-A-Q2-167]	I-A-Q2-167: log P (HCOOH): 3.19
Nc1c(-c2cccc(Br)c2)c(C(F)(F)F)nn1-c1ccc(C(=O)NC2CC2)cc1 [I-A-Q2-173]	I-A-Q2-173: log P (HCOOH): 3.11
Cc1cc(-n2nc(C3CC3)c(-c3ccc(Cl)cc3)c2N)ccc1C(=O)NCC(F)(F)C(F)F [I-A-Q2-341]	I-A-Q2-341: log P (HCOOH): 3.46
Cc1nc(CNC(=O)c2ccc(-n3nc(C(F)(F)F)c(-c4cc(Cl)cc(Cl)c4)c3N)cc2C)c(C)o1 [I-A-Q2-251]	I-A-Q2-251: log P (HCOOH): 3.84
Cc1cc(-n2nc(C(F)(F)F)c(-c3cc(Cl)cc(Cl)c3)c2N)ccc1C(=O)N(C)C [I-A-Q2-056]	I-A-Q2-056: log P (HCOOH): 3.93
Nc1c(-c2cccc(Cl)c2)c(C(F)(F)F)nn1-c1ccc(C(=O)NCC(F)(F)F)cc1 [I-A-Q2-085]	I-A-Q2-085: log P (HCOOH): 3.47
CC(NC(=O)c1ccc(-n2nc(C(F)(F)F)c(-c3cc(Cl)cc(Cl)c3)c2Br)cc1)C(F)(F)F (centres unmarked) [I-A-Q2-096]	I-A-Q2-096: log P (HCOOH): 5.35
Cc1cc(-n2nc(C(F)(F)F)c(-c3cc(Cl)cc(Cl)c3)c2N)ccc1C(=O)NC1CCCCC1 [I-A-Q2-222]	I-A-Q2-222: log P (HCOOH): 4.76
Cc1cc(-n2nc(C(F)(F)F)c(-c3cc(Cl)cc(Cl)c3)c2N)ccc1C(=O)NCc1ncccn1 [I-A-Q2-018]	I-A-Q2-018: log P (HCOOH): 3.56
Cc1cnc(CNC(=O)c2ccc(-n3nc(C(F)(F)F)c(-c4cc(Cl)cc(Cl)c4)c3N)cc2C)cn1 [I-A-Q2-265]	I-A-Q2-265: log P (HCOOH): 3.63

same assay, conditions: HCOOH; Table 4, compounds of formula I-A-Q4

Compound	log P (HCOOH)
Nc1c(-c2cccc(Br)c2)c(C(F)(F)F)nn1-c1ccc(Cl)cn1 [I-A-Q4-052]	I-A-Q4-052: log P (HCOOH): 5.02
Nc1c(-c2cc(F)cc(Cl)c2)c(C(F)(F)F)nn1-c1ccc(Cl)cn1 [I-A-Q4-040]	I-A-Q4-040: log P (HCOOH): 5.29
Nc1c(-c2c(F)cc(F)cc2F)c(C(F)(F)F)nn1-c1ccc(Cl)cn1 [I-A-Q4-046]	I-A-Q4-046: log P (HCOOH): 4.46
Nc1c(-c2cc(F)c(F)c(F)c2)c(C(F)(F)F)nn1-c1ccc(Cl)cn1 [I-A-Q4-053]	I-A-Q4-053: log P (HCOOH): 4.89
COC(=O)c1ccc(-n2nc(C(F)(F)F)c(-c3cc(Cl)cc(Cl)c3)c2N)cc1SC [I-A-Q4-118]	I-A-Q4-118: log P (HCOOH): 4.93
Nc1c(-c2ccc(I)cc2)c(C(F)(F)F)nn1-c1ccc(Cl)cn1 [I-A-Q4-051]	I-A-Q4-051: log P (HCOOH): 5.29
Nc1c(-c2ccc(F)c(F)c2)c(C(F)(F)F)nn1-c1ccc(Cl)cn1 [I-A-Q4-050]	I-A-Q4-050: log P (HCOOH): 4.64
Nc1c(-c2cc(Cl)cc(Cl)c2)c(C(F)(F)F)nn1-c1ccc(S(=O)(=O)NC2CC2)c(Br)c1 [I-A-Q4-111]	I-A-Q4-111: log P (HCOOH): 4.77
N#Cc1cc(-n2nc(C(F)(F)F)c(-c3cc(Cl)cc(Cl)c3)c2N)ccc1I [I-A-Q4-102]	I-A-Q4-102: log P (HCOOH): 5.94

same assay, conditions: HCOOH; Table 6, compounds of formula I-B-Q2

Compound	log P (HCOOH)
CC(NC(=O)c1ccc(-n2cc(-c3cc(Cl)cc(Cl)c3)c(C(F)(F)F)n2)c2ccccc12)C(F)(F)F (centres unmarked) [I-B-Q2-001]	I-B-Q2-001: log P (HCOOH): 4.74

same assay, conditions: HPLC, reversed-phase C18, mobile phase with formic acid

Compound	log P (HCOOH)
N#Cc1cc(-n2nc(C(F)(F)F)c(-c3cc(Cl)cc(Cl)c3)c2N)ccc1-n1cnc(C(N)=O)n1 [I-A-Q1-088]	I-A-Q1-088: log P (HCOOH): 3.06
N#Cc1cc(-n2nc(C(F)F)c(-c3ccc(Cl)cc3)c2N)ccc1-n1cncn1 [I-A-Q1-030]	I-A-Q1-030: log P (HCOOH): 2.92
N#Cc1cnn(-c2ccc(-n3nc(C(F)(F)F)c(-c4cc(Cl)cc(Cl)c4)c3N)cc2C#N)c1 [I-A-Q1-079]	I-A-Q1-079: log P (HCOOH): 4.28
N#Cc1cc(-n2nc(C(F)(F)F)c(-c3cccc(Br)c3)c2N)ccc1-n1cncn1 [I-A-Q1-046]	I-A-Q1-046: log P (HCOOH): 3.24

same assay, conditions: HPLC, reversed-phase C18, mobile phase with formic acid; read-out: log P (HCOOH)

Compound	chromatographic logP
CCOC(=O)c1ccc(-n2nc(C(F)(F)F)c(-c3ccc(Cl)c(Cl)c3)c2N)cc1C [I-A-Q4-013, Ethyl 4-[5-amino-4-(3,4-dichlorophenyl)-3-(trifluoromethyl)-1H-pyrazol-1-yl]-2-methylbenzoate]	5.24
